Patent US20200199523A1, “MEDIA FOR MICROORGANISM CULTURE AND RELATED COMPOSITIONS AND METHODS” (Massachusetts Institute of Technology, priority 2017, published 2020)

Key:
wildtype Pichia pastoris = assay: Batch cultivation growth (optical density, growth rate) in microtiter plates and shake flasks; type: cell-based, Komagataella phaffii; conditions: for Effect of supplement on growth rate: nutrient screening in defined media; for Growth rate μ in supplemented defined media: nutrient screening, supplement added to defined media; for Effect on growth rate of reducing the element's concentration by 50%: basal salts medium (FIG. 2A)
Experimental: Batch cultivations were conducted at two scales: microtiter plates and shake flasks. Microtiter plates with 24 wells and pyramidal bottoms were purchased from Axygen. Each well had 10 mL total volume and cultivations used a 3 mL working volume. Plates were incubated in a Liconic LPX44 shaker at 600 rpm. Temperature was not controlled but remained at room temperature, between 21 and 24° C. […] The shake rate was set to 300 rpm and the temperature was controlled at 25° C. […]
All chemicals used in media formulations were purchased from Sigma. Complex media was purchased from Teknova. […] Glycerol was added at a starting concentration of 1% by volume. Media was autoclaved and filtered through a […] bottletop filter before use. PTM1 salts were added after filtration to avoid loss of trace elements through precipitation.
Biomass was measured by optical density. Shake flask samples were measured on a Genesys 10 Bio spectrophotometer. Microtiter plate samples were measured using a Tecan Infinite M200 Pro plate reader and converted to the same scale as the spectrophotometer samples using a calibration curve. Growth rates were calculated by linear regression between the natural logarithm of the optical density and the cultivation time in hours. The regression was run on time points during the exponential growth phase unless otherwise specified.

[1] = system: P. pastoris strains expressing hGH, G-CSF, IFN; assay: Amino acid supplementation of defined media: recombinant protein expression (GXII, SDS-PAGE, ELISA); type: cell-based; conditions: alone or with other amino acids, IFN (FIG. 10-13)
Experimental: Here, a study is presented of the impact of adding specific amino acids on recombinant protein titers. To uncover a general formulation, three P. pastoris strains were studied, each expressing a different heterologous protein.
Expression of three recombinant proteins, hGH, G-CSF, and IFN, by P. pastoris grown in media with different individual amino acids, 12.5 mM each. Protein concentrations measured by GXII, samples taken 24 hours after methanol induction (FIG. 10).
(FIG. 11). hGH expression by P. pastoris grown in media with different combinations of amino acids, each 12.5 mM total, based on initial individual amino acid screenings is shown. hGH concentrations were measured by GXII, samples taken 24 hours after methanol induction.
In FIG. 12, the effect of Asparagine, Glutamine, and Arginine on protein expression is examined. The starred media conditions are as follows; Glutamine, Arginine, Glutamine+Arginine (RDM), Asparagine, Glutamine+Asparagine, and all 20 amino acids. In all media conditions, total amino acid concentration is normalized to 25 mM.
hGH production was measured in media containing individual or combinations of amino acids. The total concentration in (mM) of amino acids was 12.5, 25, or 50 mM. The results were measured by ELISA, and each value is the average of three technical replicates.

[2] = system: P. pastoris gene expression; assay: RNA-Seq gene expression and ssGSEA at stages of perfusion cultivation; type: cell-based, K. phaffii
Experimental: To study gene expression under perfusion, seven cultivations were conducted (FIG. 14B). The production medium contained 1.5% v/v methanol. For four of the bioreactors (labeled 1, 3, 5A, 6A), the cultures were induced immediately after the DO spike. For the other three reactors (labeled 4, 5, 6), glycerol feed was maintained after the DO spike for 4 hours and then the cultures were induced with methanol. There were no significant differences between the biomass, hGH titers, or transcriptomic data between the two conditions (FIG. 15), so they were treated as biological replicates for RNA-Seq analysis.
RNA was isolated from samples taken at six time points during the cultivation (FIG. 14B). Samples were taken from all reactors after one day of exponential growth on glycerol (G1) and immediately after the DO spike (G2). […]
RNA was extracted using the Qiagen RNeasy kit (cat. no. 74104). […] All libraries were sequenced on the Illumina NextSeq platform to generate 75-nucleotide paired-end reads at a read depth of at least 3 million reads per sample. The reads were aligned to the previously reported genome sequence for this strain (Love et al., 2016) using RSEM version 1.2.15 with bowtie2 version 2.2.3. The reads were also aligned to the sequence for hGH using BWA (version 0.7.12). […]

[3] = system: K. phaffii strain modified to express human growth hormone (hGH); assay: Perfusion cultivation: biomass (wet cell weight), hGH titer, productivity; type: cell-based
Experimental: Experiments were conducted using a K. phaffii strain modified to express human growth hormone (hGH) under the control of the AOX1 promoter. For biomass accumulation, cells were grown in medium containing per liter: 40 mL glycerol, 12 g KH2PO4, 4.7 g MgSO4.7H2O, 0.36 g CaCl2.2H2O, 4.96 g (NH4)2SO4, 1.46 g L-glutamine, 1.74 g L-arginine, 3.3 mL of vitamin solution, 10 mL of lipids solution, and 4.35 mL of PTM1 salts (Amresco J241). For protein production, cells were grown in medium containing per liter: 12 g KH2PO4, 4.7 g MgSO4.7H2O, 0.36 g CaCl2.2H2O, 13.21 g (NH4)2SO4, 2.92 g L-glutamine, 3.3 mL of vitamin solution, 10 mL of lipids solution, and 4.35 mL of PTM1 salts (Amresco J241). Both media were adjusted to pH 6.5 using 5M KOH. The vitamin solution consisted of per liter: 7.5 g myo-inositol, 0.3 g thiamine HCl, 0.3 g calcium pantothenate, 0.3 g nicotinic acid, 0.3 g pyroxidine HCl, 0.015 g biotin, and 0.06 g para-aminobenzoic acid. The lipids solution consisted of per liter: 2 mg arachidonic acid, 10 mg linoleic acid, 10 mg linolenic acid, 10 mg myristic acid, 10 mg oleic acid, 10 mg palmitic acid, 10 mg stearic acid, 2.2 g Tween-80, 70 mg tocopherol acetate, and 100 g of Pluronic F-68. All chemicals were purchased from Sigma. The medium was filtered before use.
Cultivations were conducted in 0.5 L Infors HT bioreactors adapted for operation in perfusion mode. Cultures were inoculated directly from a frozen cell stock into 0.44 L of medium. Cells were grown for approximately 32 hours in perfusion mode with medium containing glycerol fed at a rate of 0.5 mL/minute. […] The cultures were induced by switching the feed to production medium containing methanol, which was also fed at 0.5 mL/minute. Bioreactor temperature was automatically controlled at 25° C. The pH was controlled at 6.5 using 5M KOH.
For the studies of higher methanol feed rate, two cultivations were conducted. The production medium contained 15% v/v methanol. All other fermentation conditions were as described above.
Biomass was measured by wet cell weight. Five hundred microliters of sample were spun in a Costar Spin-X centrifuge filter tube for 10 minutes at 1500 g and the pellet was weighed. hGH concentrations in the supernatants were quantified by RPLC and by gel electrophoresis (Perkin Elmer GXII). Concentrations estimated by the two methods were highly consistent (slope=0.98, R^2=0.95).
Cell-specific productivity was calculated according to the following system of equations (Amos Lu, unpublished): […]
where qp is the cell-specific productivity, μ is the growth rate, F is the perfusion rate, X is the biomass concentration, and P is the protein titer.

[4] = perfusion, 15% v/v vs 1.5% v/v methanol

**Q.** For `C[C@H](N)C(=O)O` [Alanine], which “Effect of supplement on growth rate” value (wildtype Pichia pastoris) is on record?
**A.** Its value is “did not”.

**Q.** What about the “Growth rate μ in supplemented defined media” value (from here on “Growth rate μ”) (wildtype Pichia pastoris) of the same molecule?
**A.** The value was 0.195 h⁻¹.

**Q.** Which “Effect on protein production” value [1] does the source give for `N=C(N)NCCC[C@H](N)C(=O)O` [Arginine] here?
**A.** The value was “increases protein production”.

**Q.** What about the “Effect of supplement on growth rate” value (wildtype Pichia pastoris) of the same molecule?
**A.** The value was “significant benefit”.

**Q.** And the “Growth rate μ” value (wildtype Pichia pastoris)?
**A.** Its value is 0.202 h⁻¹.

**Q.** Which “Effect on protein production” value [1] does the source give for `NC(=O)CC[C@H](N)C(=O)O` [Glutamine] here?
**A.** The value was “increases protein production”.

**Q.** And the “Growth rate μ” value (wildtype Pichia pastoris)?
**A.** The value was 0.217 h⁻¹.

**Q.** Which “Growth rate μ” value (wildtype Pichia pastoris) does the source give for `CC(O)C(=O)O` (stereo not shown) [Lactate] here?
**A.** Its value is 0.186 h⁻¹.

**Q.** Which results are given for `NCCCC[C@H](N)C(=O)O` [Lysine]?
**A.** Effect of supplement on growth rate (wildtype Pichia pastoris): did not; Growth rate μ in supplemented defined media (wildtype Pichia pastoris): 0.196 h⁻¹

**Q.** How did the “Growth rate μ” value (wildtype Pichia pastoris) turn out when `OC[C@H]1O[C@H](O[C@H]2O[C@H](CO)[C@@H](O)[C@H](O)[C@H]2O)[C@H](O)[C@@H](O)[C@@H]1O` [Trehalose] was run?
**A.** The value was 0.193 h⁻¹.

**Q.** Which “Effect on growth rate of reducing the element's concentration by 50%” value (wildtype Pichia pastoris) does the source give for `N` [ammonium] here?
**A.** The value was “significantly improved the growth rate”.

**Q.** What about the “Concentration at which it became limiting for growth” value (wildtype Pichia pastoris; basal salts medium (FIG. 2B)) of the same molecule?
**A.** The value was 12.5 mM.

**Q.** Which “Effect on protein production” value [1] does the source give for `NC(=O)C[C@H](N)C(=O)O` [asparagine] here?
**A.** The value was “increases protein production”.

**Q.** How did the “Increase in expression of genes involved in methanol metabolism vs glycerol” value ([2]; first 4 hours after induction) turn out when `CO` [methanol] was run?
**A.** The value was 35 fold.

**Q.** What about the “Increase in expression of genes involved in methanol metabolism vs glycerol” value ([2]; later in methanol feeding) of the same molecule?
**A.** The value was 100 fold.

**Q.** What about the “Cell-specific productivity relative to low-feed case” value ([3]; beginning of the cultivation (FIG. 23C)) of the same molecule?
**A.** The value was “double”.

**Q.** And the Biomass concentration ([3]; perfusion, 15% v/v methanol, day 6 of production)?
**A.** Its Biomass concentration is 530 g/L WCW.

**Q.** And the hGH titer ([3]; perfusion, 15% v/v methanol, end of the cultivation)?
**A.** The hGH titer was 2 g/L.

**Q.** What about the “Cell density relative to low-methanol feeding experiments” value [3, 4] of the same molecule?
**A.** Its value is “over four times greater”.

**Q.** What about the “hGH titers relative to lower methanol feed rate” value [3, 4] of the same molecule?
**A.** The value was “over six times higher”.

**Q.** What about the Average growth rate ([3]; perfusion, methanol feed rate increased by a factor of ten (15% v/v)) of the same molecule?
**A.** The Average growth rate was 0.01 h⁻¹.

**Q.** What about the “Volumetric productivity relative to lower methanol feed” value ([3]; perfusion, on average (FIG. 23D)) of the same molecule?
**A.** Its value is 3-4 times.

**Q.** Which “Effect on growth rate of reducing the element's concentration by 50%” value (wildtype Pichia pastoris) does the source give for `S1SSSSSSS1` [sulfur] here?
**A.** The value was “no significant effect”.

**Q.** Which “Effect on growth rate of reducing the element's concentration by 50%” value (wildtype Pichia pastoris) does the source give for phosphate here?
**A.** Its value is “no significant effect”.
